Measured values published in PubChem BioAssay AID328 (DTP/NCI, 2004).
Several values for one entry are separate records, joined by “and”; a condition that tells them apart may be missing. Identical values can stand only once. Toxic doses and inconclusive results are not listed.

Test system: BDF1 mice, P388 leukemia ip, median survival T/C
Assay: NCI In Vivo Anticancer Drug Screen. Data for tumor model P388 Leukemia (intraperitoneal) in B6D2F1 (BDF1) mice
Details: endpoint: median survival time, higher = longer survival
Outline: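 Vehicle-dosed animals serve as the reference; survival of compound-dosed, tumour-implanted mice is divided by it.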

[1] = dose: 50.0 mg/kg/injection, schedule: Q01DX009 (ip), vehicle: saline with Tween-80
[2] = dose: 200.0 mg/kg/injection, schedule: Q04DX003 (ip), vehicle: saline with Tween-80
[3] = dose: 12.5 mg/kg/injection, schedule: Q01DX009 (ip), vehicle: saline
[4] = dose: 100.0 mg/kg/injection, schedule: Q04DX003 (ip), vehicle: saline with Tween-80
[5] = dose: 400.0 mg/kg/injection, schedule: Q04DX003 (ip), vehicle: saline with Tween-80
[6] = dose: 75.0 mg/kg/injection, schedule: Q01DX009 (ip), vehicle: saline with Tween-80
[7] = dose: 150.0 mg/kg/injection, schedule: Q01DX009 (ip), vehicle: saline with Tween-80
[8] = dose: 300.0 mg/kg/injection, schedule: Q01DX009 (ip), vehicle: saline with Tween-80
[9] = dose: 100.0 mg/kg/injection, schedule: Q01DX009 (ip), vehicle: saline with Tween-80
[10] = dose: 25.0 mg/kg/injection, schedule: Q01DX009 (ip), vehicle: Klucel (hydroxypropylcellulose) (HPC)
[11] = dose: 50.0 mg/kg/injection, schedule: Q01DX009 (ip), vehicle: Klucel (hydroxypropylcellulose) (HPC)
[12] = dose: 100.0 mg/kg/injection, schedule: Q01DX009 (ip), vehicle: Klucel (hydroxypropylcellulose) (HPC)
[13] = dose: 100.0 mg/kg/injection, schedule: Q04DX003 (ip), vehicle: Klucel (hydroxypropylcellulose) (HPC)
[14] = dose: 200.0 mg/kg/injection, schedule: Q01DX009 (ip), vehicle: saline with Tween-80

O=[N+]([O-])c1ccc(N2CCN(CCO)CC2)c2c1no[n+]2[O-]
T/C (dose: 15.0 mg/kg/injection, schedule: Q01DX009 (ip), vehicle: saline with Tween-80): 154 % of control
T/C (dose: 30.0 mg/kg/injection, schedule: Q01DX009 (ip), vehicle: saline with Tween-80): 161 % of control

Cc1c(O)ccc([N+](=O)[O-])c1O
T/C (dose: 6.25 mg/kg/injection, schedule: Q01DX009 (ip), vehicle: saline with Tween-80): 91 % of control
T/C (dose: 6.25 mg/kg/injection, schedule: Q04DX003 (ip), vehicle: saline with Tween-80): 104 % of control
T/C (dose: 12.5 mg/kg/injection, schedule: Q01DX009 (ip), vehicle: saline with Tween-80): 100 % of control
T/C (dose: 12.5 mg/kg/injection, schedule: Q04DX003 (ip), vehicle: saline with Tween-80): 91 % of control
T/C (dose: 25.0 mg/kg/injection, schedule: Q01DX009 (ip), vehicle: saline with Tween-80): 91 % of control
T/C (dose: 25.0 mg/kg/injection, schedule: Q04DX003 (ip), vehicle: saline with Tween-80): 104 % of control

COc1cc([C@@H]2c3cc4c(cc3[C@H](OC(C)=O)[C@H]3COC(=O)[C@@H]23)OCO4)cc(OC)c1OC
T/C (dose: 25.0 mg/kg/injection, schedule: Q01DX010 (ip), vehicle: carboxymethylcellulose (CMC)): 123 % of control
T/C [1]: 172 % of control
T/C (dose: 50.0 mg/kg/injection, schedule: Q01DX010 (ip), vehicle: carboxymethylcellulose (CMC)): 95 % of control
T/C (dose: 50.0 mg/kg/injection, schedule: Q04DX003 (ip), vehicle: saline sonified): 100 % of control
T/C (dose: 66.0 mg/kg/injection, schedule: Q04DX003 (ip), vehicle: saline sonified): 88 % of control
T/C (dose: 88.0 mg/kg/injection, schedule: Q04DX003 (ip), vehicle: saline with Tween-80): 113 % of control
T/C (dose: 100.0 mg/kg/injection, schedule: Q04DX003 (ip), vehicle: saline sonified): 100 % of control
T/C (dose: 132.0 mg/kg/injection, schedule: Q04DX003 (ip), vehicle: saline with Tween-80): 150 % of control
T/C (dose: 150.0 mg/kg/injection, schedule: Q04DX003 (ip), vehicle: saline sonified): 100 % of control
T/C (dose: 200.0 mg/kg/injection, schedule: Q04DX003 (ip), vehicle: saline sonified): 170 % of control
T/C [2]: 160 % of control

Cc1ccc(Oc2ccc3cc[n+](C)cc3c2)cc1
T/C (dose: 2.75 mg/kg/injection, schedule: Q01DX009 (ip), vehicle: saline): 94 % of control
T/C (dose: 4.12 mg/kg/injection, schedule: Q01DX009 (ip), vehicle: saline): 105 % of control
T/C (dose: 9.5 mg/kg/injection, schedule: Q01DX009 (ip), vehicle: saline): 99 % of control
T/C [3]: 118 % of control

CCCNC(=O)Oc1c(C(C)C)ccc(C)c1Cl
T/C [4]: 100 % of control
T/C [2]: 90 % of control
T/C [5]: 104 % of control

CNC(=O)N/N=C/c1ccccc1
T/C [6]: 101 % of control
T/C [7]: 97 % of control
T/C [8]: 92 % of control

O=[N+]([O-])c1cc(-c2nc3ccccc3[nH]2)cc([N+](=O)[O-])c1
T/C [1]: 110 % of control
T/C [9]: 91 % of control

CCn1nnc2c(N(C)C)nc(N)nc21
T/C [10]: 92 % of control
T/C [11]: 92 % of control
T/C (dose: 50.0 mg/kg/injection, schedule: Q04DX003 (ip), vehicle: Klucel (hydroxypropylcellulose) (HPC)): 100 % of control
T/C [12]: 92 % of control
T/C [13]: 104 % of control

Cc1ccccc1-n1c(C)nc2ccccc2c1=O
T/C (dose: 12.5 mg/kg/injection, schedule: Q01DX009 (ip), vehicle: Klucel (hydroxypropylcellulose) (HPC)): 100 % of control
T/C [10]: 96 % of control
T/C [11]: 92 % of control
T/C [13]: 104 % of control
T/C (dose: 200.0 mg/kg/injection, schedule: Q04DX003 (ip), vehicle: Klucel (hydroxypropylcellulose) (HPC)): 91 % of control

CC1=Nc2ccccc2C(=O)N(C)N1
T/C [1]: 100 % of control
T/C [9]: 104 % of control
T/C [14]: 97 % of control

CS(=O)(=O)OCCN(Cc1ccc(OS(C)(=O)=O)cc1)S(C)(=O)=O
T/C [1]: 102 % of control
T/C [9]: 103 % of control
T/C [4]: 107 % of control
T/C [14]: 110 % of control
T/C [2]: 109 % of control
T/C (dose: 400.0 mg/kg/injection, schedule: Q01DX009 (ip), vehicle: saline with Tween-80): 94 % of control
T/C [5]: 111 % of control

NC(N)=Nc1ccc(C(=O)Oc2ccc(OC(=O)c3cccc(N=C(N)N)c3)cc2)cc1
T/C (dose: 50.0 mg/kg/injection, schedule: Q01DX009 (ip), vehicle: water): 96 % of control
T/C (dose: 50.0 mg/kg/injection, schedule: Q04DX003 (ip), vehicle: water): 103 % of control
T/C (dose: 100.0 mg/kg/injection, schedule: Q01DX009 (ip), vehicle: water): 96 % of control
T/C (dose: 100.0 mg/kg/injection, schedule: Q04DX003 (ip), vehicle: water): 94 % of control
T/C (dose: 200.0 mg/kg/injection, schedule: Q01DX009 (ip), vehicle: water): 99 % of control
T/C (dose: 200.0 mg/kg/injection, schedule: Q04DX003 (ip), vehicle: water): 100 % of control
T/C (dose: 400.0 mg/kg/injection, schedule: Q01DX009 (ip), vehicle: water): 114 % of control
T/C (dose: 400.0 mg/kg/injection, schedule: Q04DX003 (ip), vehicle: water): 105 % of control

CCCn1c2ccccc2c2ccccc21
T/C [12]: 120 % of control
T/C (dose: 200.0 mg/kg/injection, schedule: Q01DX009 (ip), vehicle: Klucel (hydroxypropylcellulose) (HPC)): 100 % of control
T/C (dose: 400.0 mg/kg/injection, schedule: Q01DX009 (ip), vehicle: Klucel (hydroxypropylcellulose) (HPC)): 95 % of control

S=P(N1CCOCC1)(N1CC1)N1CC1
T/C (dose: 2.5 mg/kg/injection, schedule: Q01DX010 (ip), vehicle: saline): 109 % of control
T/C (dose: 20.0 mg/kg/injection, schedule: Q01DX010 (ip), vehicle: saline): 155 % of control

Cn1c(=O)[nH]cc([N+](=O)[O-])c1=O
T/C [1]: 104 % of control
T/C [9]: 105 % of control
T/C [14]: 98 % of control

c1csc(C2Nc3ccccc3N2)c1
T/C [1]: 105 % of control
T/C [9]: 99 % of control
T/C [14]: 119 % of control

COC(=O)c1cc(OC)cc(OC)c1
T/C (dose: 100.0 mg/kg/injection, schedule: Q04DX003 (ip), vehicle: other): 100 % of control
T/C (dose: 200.0 mg/kg/injection, schedule: Q04DX003 (ip), vehicle: other): 113 % of control
T/C (dose: 400.0 mg/kg/injection, schedule: Q04DX003 (ip), vehicle: other): 109 % of control

CC(C)(C(Cl)Cl)S(=O)(=O)O (tested in a mixture with another compound)
T/C [6]: 100 % of control
T/C (dose: 75.0 mg/kg/injection, schedule: Q04DX003 (ip), vehicle: saline with Tween-80): 110 % of control
T/C [7]: 100 % of control
T/C (dose: 150.0 mg/kg/injection, schedule: Q04DX003 (ip), vehicle: saline with Tween-80): 100 % of control
T/C [8]: 109 % of control
T/C (dose: 300.0 mg/kg/injection, schedule: Q04DX003 (ip), vehicle: saline with Tween-80): 110 % of control

C=C1C(O)C2(O)OCC34C(CC5C(C)=CC(=O)C(OC)C5(C)C23)OC(=O)C(OC(=O)C(C)CC)C14 (stereo not given)
T/C (dose: 0.06 mg/kg/injection, schedule: Q01DX009 (ip), vehicle: saline with Tween-80): 98 % of control
T/C (dose: 0.12 mg/kg/injection, schedule: Q01DX009 (ip), vehicle: saline with Tween-80): 112 % of control
T/C (dose: 0.25 mg/kg/injection, schedule: Q01DX009 (ip), vehicle: saline with Tween-80): 105 % of control
T/C (dose: 0.5 mg/kg/injection, schedule: Q01DX009 (ip), vehicle: saline with Tween-80): 110 % of control
T/C (dose: 1.0 mg/kg/injection, schedule: Q01DX009 (ip), vehicle: saline with Tween-80): 120 % of control
T/C (dose: 2.0 mg/kg/injection, schedule: Q01DX009 (ip), vehicle: saline with Tween-80): 115 % of control

O=C(O)c1sc(C(=O)O)c(-c2ccccc2)c1-c1ccccc1
T/C (dose: 6.25 mg/kg/injection, schedule: Q01DX009 (ip), vehicle: saline): 89 % of control and 101 % of control
T/C [3]: 101 % of control and 115 % of control
T/C (dose: 25.0 mg/kg/injection, schedule: Q01DX009 (ip), vehicle: saline): 87 % of control and 95 % of control
T/C [1]: 100 % of control
T/C (dose: 50.0 mg/kg/injection, schedule: Q01DX009 (ip), vehicle: saline): 89 % of control and 100 % of control
T/C [9]: 100 % of control
T/C [4]: 90 % of control
T/C [14]: 100 % of control
T/C [2]: 95 % of control
T/C [5]: 104 % of control
